Assay results as given in patent US8420777B2, “Compounds that inhibit Hsp90 protein-protein interactions with IAP proteins” (University of Massachusetts, priority 2004, dated 2013).
Ends that are not written are not given here. Peptide text beside a SMILES is read from it. * marks the point of attachment. Cbz = O=C(OCc1ccccc1)*; CH2F = FC*

Assays:
HeLa cells [1] = assay: Apoptosis by hypodiploid DNA content, propidium iodide flow cytometry; format: cell-based, Human; conditions: 24 hours
Description: For determination of apoptosis by hypodiploid DNA content, various tumor cell lines were incubated with increasing concentrations of the cell permeable control scrambled (SEQ ID NO:25) or Survivin peptide (SEQ ID NO:19), harvested after 24 hours (floaters plus attached cells) fixed in 70% ethanol, and stained with 10 μg/ml propidium iodide plus 100 μg/ml RNAse A and 0.05% Triton™ X-100 in PBS, pH 7.4. Cultures were analyzed for DNA content by flow cytometry. For colorimetric quantification of cell viability, an MTT assay was used. Various tumor cell lines were incubated with increasing concentrations of the cell permeable retro-inverso control scrambled P4 or the Survivin-specific P3 peptide, incubated for 24 hours at 37° C. washed twice with Bruffs Media, and 4,5-dimethylthiazol-2-yl)-2,5-diphenyltetrazolium bromide (MTT) (Sigma, St. Louis, Mo.) was added at 5 mg/ml. Decrease in cell viability was analyzed for loss of colorimetric absorption at OD405.
HeLa cells were incubated with the indicated increasing concentrations of the cell permeable Control (scrambled) or Survivin peptide, harvested after 24 hours at 37° C., and analyzed by hypodiploid DNA content by propidium iodide staining and flow cytometry.
HeLa cells were incubated with chemotherapeutic drugs Taxol™ (10 μM) or adriamycin (300 nM), or cell permeable control peptide or the Survivin peptide, harvested after 24 hours, and analyzed for induction of apoptosis by hypodiploid DNA content by flow cytometry.

HeLa cells [2] = assay: Proteasome or caspase inhibitor effect on GA-mediated Survivin/XIAP degradation, Western blotting; format: cell-based, Human; conditions: for reversal of loss of XIAP expression caused by GA: HeLa cell extracts, GA with inhibitor
Description: Extracts from HeLa cells treated with 1 μM GA for 30 hours in the presence or absence of 5 μM of the proteasome inhibitor lactacystin were analyzed for changes in Survivin or β-actin levels by Western blotting. Antibodies to actin were obtained from Sigma. […] Levels of β-actin were unaffected by treatment in this experiment.
HeLa cell extracts were collected after exposure to the indicated concentrations of GA in the absence (None) or in the presence of the proteasome inhibitor, lactacystin or the broad spectrum caspase inhibitor, ZVAD-fink. Loss of XIAP expression in the presence of Hsp90 inhibition by GA is reversed by lactacystin but not ZVAD-fink, as indicated by Western blotting for XIAP depicted in FIG. 5C (* indicates non-specific band).

Hsp90 = molecular target: T1, Hsp90 (Homo sapiens, UniProt P07900); assay: Surface plasmon resonance of immobilized biotin peptides with r-Hsp90; format: binding
T1 construct: GST-Hsp90 (amino acids 1-732); GST (N); made in house; host or cells: E. coli
Description: Wild type Survivin peptide 77 to 91 (SEQ ID NO:22) or the corresponding C84A mutant 77-91 peptide (HKKHSSGAAFLSVKK; SEQ ID NO:23) was synthesized with an N-terminal biotin and immobilized on streptavidin coated chips (SA5) purchased from Biacore Inc. (Piscataway, N.J.). Increasing concentrations (100 nM-10 μM) of purified r-Hsp90 suspended in 10 mM HEPES, 150 mM NaCl, 3 mM EDTA, 0.005% polysorbate-20, 1 mM DTT, were then injected in […] over the immobilized peptides. A constant flow rate of […] was maintained, and the dissociation phase was followed for 300 seconds. Surfaces were regenerated using […] of 1 M NaCl/50 mM NaOH after each dissociation phase. A new injection cycle was initiated only after 10 min post-regeneration to ensure complete removal of NaCl and NaOH. The collected data were analyzed using the Biaeval 3.0 software package from Biacore Inc.
Sensorgrams (FIG. 10B) indicate binding of the Survivin peptides to Hsp90, measured by an increase in surface plasmon resonance during analyte flow over the chip surface, with the nonspecific signal from the biotin-only surface subtracted.

[3] = molecular target: T2, Hsp90-Survivin binding interactions (Homo sapiens, UniProt P07900, S63T); assay: ELISA: Survivin peptides inhibiting Hsp90 binding to immobilized Survivin; conditions: 20 μg/ml peptide preincubated with Hsp90, 16 hours, 4° C.
T2 construct: GST-Hsp90 (amino acids 1-732); GST (N); made in house; host or cells: E. coli
Description: ELISA experiments were performed by immobilizing recombinant Survivin (r-Survivin) ([…]) or recombinant Hsp90 (r-Hsp90) (10 μg/ml) on plastic microtiter wells (Immulon™-2, Dynatech Laboratories, Chantilly, Va.) using bicarbonate buffer, pH 9.5 (100 μl/well) for 18 hours at 4° C. Bound protein was blocked with 3% gelatin for 1 hour at 37° C., rinsed with washing buffer (TBS pH 7.4, 0.1% Tween™, 0.1% BSA) and incubated for 1 hour at 37° C. with different concentrations of a test protein to determine if the test protein bound the immobilized protein.
ELISA experiments were performed essentially as in Example 2 with the following variations. 20 μg/ml of each recombinant Survivin peptide (expressed in E. coli) was preincubated with Hsp90 at 2.5 mg/ml for 16 hours at 4° C. After binding and blocking of full length Survivin to wells in a microtiter plate, the preincubated mixtures of Hsp90 and Survivin peptides were added to the wells and incubated for 1 hour at 37° C. Wells were washed, incubated with primary antibody, washed again, and bound antibody was quantified as described above. Each experiment was repeated three times and the standard deviation is shown.

[4] = tested on: U937, K562, HL60, THP1 AML cell lines; assay: MTT cell viability in AML cell lines; format: cell-based, human
Description: FIG. 30 is a graph depicting killing activity of survivin K79-G83 in AML cells. The indicated human AML cell lines (U937, K562, HL60, and THP1) were incubated with scrambled (SEQ ID NO:28) or Survivin (SEQ ID NO:20) peptides and evaluated for cell viability by MTT.
The effect of the K79-G83 Survivin peptide was characterized in more detail for anti-tumor activity in AML. The K79-L87 (SEQ ID NO:19) and K79-G83 peptides (SEQ ID NO:20) were incubated with AML cells, and cell viability was measured using MTT.

[5] = tested on: HL-60 and THP-1 AML cell lines; assay: MTT cell viability, short versus full length peptide; format: cell-based; conditions: 4×10^5 cells
Description: FIGS. 29B-29D are graphs depicting killing of AML cells by Survivin peptides. FIG. 29B depicts survivin peptide activity in HL-60 cells, measured by Trypan blue exclusion. FIGS. 29C and 29D depict killing, as measured using MTT, of HL-60 (FIG. 29C) or THP-1 (FIG. 29D) cells by full length Survivin peptide (SEQ ID NO:19), Survivin peptide K79-G83 (SEQ ID NO:20), or scrambled peptide (SEQ ID NO:25 and SEQ ID NO:28).
The activity of a shorter Survivin peptide was also tested in an AML cell line. A shorter cell permeable Survivin peptide was synthesized by fusing the third α-helix of the Antennapedia carrier sequence to the amino-terminus of the Survivin peptide sequence K79-G83 (SEQ ID NO:20). […] The scrambled control peptide ([…]; SEQ ID NO:28) was ineffective (FIGS. 29C, D). For these experiments a higher number of cells was used (4×10^5) to produce a 50% killing efficiency by full length survivin peptide.

survivin-Hsp90 = molecular target: T3, survivin-Hsp90 (Homo sapiens, UniProt P07900, S63T); assay: ELISA inhibition of recombinant survivin binding to Hsp90
T3 construct: GST-Hsp90 (amino acids 1-732); GST (N); made in house; host or cells: E. coli
Source text: (§1) FIG. 31 is a graph depicting Hsp90 binding by Survivin peptides, measured by ELISA. Data are the mean±S.D. of two independent experiments.

recombinant Hsp90 = molecular target: T4, recombinant Hsp90 (Homo sapiens, UniProt P07900, S63T); assay: ELISA binding to recombinant Hsp90
T4 construct: GST-Hsp90 (amino acids 1-732); GST (N); made in house; host or cells: E. coli
Source text: as §1

PC3 cells = assay: Immunoblotting of Hsp90 client proteins; format: cell-based; conditions: 75 and 150 μM, 8 hours
Description: Survivin affects the stability and function of Hsp90 client proteins in tumor cells. PC3 cells were untreated or exposed to 75 and 150 μM concentrations of the survivin peptide (SEQ ID NO:19) (or control scrambled peptide; SEQ ID NO:25) for 8 hours and processed for immunoblotting against the Hsp90 client proteins survivin, AKT, and CDK-6. […] Conversely, the levels of Hsp90, Hsp70, and PCNA were not affected (FIG. 26A).

[6] = tested on: HFF, HGF, WS-1 normal cells; assay: MTT colorimetric viability assay, normal cell types; format: cell-based, human; conditions: 24 hours
Description: (§2) FIGS. 22A and 22B compares the effect of P31 (SEQ ID NO:19) or P33 (SEQ ID NO:25) on apoptosis of tumor cell lines (FIG. 22A) and normal cell lines (FIG. 22B). The following tumor cell lines DU145 (prostate cancer, circles), PC3 (prostate cancer, triangles), or HeLa (cervical carcinoma, squares) were treated with the indicated increasing concentrations of P31 peptide (solid symbols) or control P33 peptide (open symbols), harvested after 24 hours, and analyzed for cell viability using an MTT colorimetric assay. For normal cell types (right panel), HFF (human foreskin fibroblasts, squares), HGF (human fibroblasts, triangles) or WS-1 (human epithelial cells, circles) were treated with P31 (solid symbols) or control scrambled peptide P33, harvested after 24 hours and analyzed for overall cell viability by MTT colorimetric assay. All cell lines were from ATCC.

HL-60 cells = assay: Cell killing by trypan blue exclusion; format: cell-based
Description: The expression and function of the survivin-Hsp90 pathway in acute myelogenous leukemia (AML) cell lines was analyzed. Survivin was abundantly expressed in four AML cell lines, U937, K-562, THP-1 and HL-60, by Western blotting (FIG. 29A).

[7] = tested on: DU145, PC3, HeLa tumor cell lines; assay: MTT colorimetric viability assay, tumor cell lines; format: cell-based; conditions: increasing concentrations, 24 hours
Description: as §2

HeLa cells [8] = assay: Stability of Hsp90 client proteins and caspase-3 proform, Western blot; format: cell-based, Human; conditions: increasing concentrations, 24 hours
Description: To determine whether intracellular loading of the Survivin cell permeable peptide reproduced the effect of mAb 8E2 that disrupts the Survivin-Hsp90 interaction in destabilizing Survivin levels in vivo (FIG. 8), HeLa cells were loaded with the indicated increasing concentrations of cell permeable control (SEQ ID NO:25) or Survivin (SEQ ID NO:19) cell permeable peptide, harvested after 24 hours, and analyzed for stability of Hsp90 client proteins, Survivin and Akt. Polyclonal antibody to Akt was obtained from Cell Signaling Technology (Cat. No. 9272).

HeLa cells [9] = assay: Annexin V labeling and propidium iodide multiparametric flow cytometry; format: cell-based, Human; conditions: increasing concentrations, eight hour incubation, 37° C.
Description: HeLa cell cultures were treated with the indicated increasing concentrations of P31 (Survivin) or P33 (Control; SEQ ID NO:25) peptides, harvested after an eight hour incubation at 37° C., and analyzed for multiparametric flow cytometry of Annexin V labeling (X-axis, a marker of apoptosis) and propidium iodide staining (Y-axis, a marker of cell death).

CC(=O)O[C@H]1C(=O)[C@@]2(C)[C@H]([C@H](OC(=O)c3ccccc3)[C@]3(O)C[C@H](OC(=O)[C@H](O)[C@@H](NC(=O)c4ccccc4)c4ccccc4)C(C)=C1C3(C)C)[C@]1(OC(C)=O)CO[C@@H]1C[C@@H]2O [Taxol, paclitaxel]
loss of cell viability by hypodiploid DNA content (HeLa cells [1]; 10 μM): does not result in significant loss of cell viability

COC(=O)C[C@H](NC(=O)[C@H](C)NC(=O)[C@@H](NC(=O)OCc1ccccc1)C(C)C)C(=O)CF [ZVAD-fink, Z-Val-Ala-Asp (OMe)-CH2F] (Cbz-Val-Ala-Asp(OMe)-CH2F)
reversal of loss of XIAP expression caused by GA (HeLa cells [2]): not

COc1cccc2c1C(=O)c1c(O)c3c(c(O)c1C2=O)C[C@@](O)(C(=O)CO)C[C@@H]3O[C@H]1C[C@H](N)[C@H](O)[C@H](C)O1 [adriamycin]
loss of cell viability by hypodiploid DNA content (HeLa cells [1]; 300 nM): does not result in significant loss of cell viability

CC(=O)N[C@@H](CSC(=O)[C@]1([C@@H](O)C(C)C)NC(=O)[C@H](C)[C@@H]1O)C(=O)O [lactacystin]
Survivin levels following lactacystin and GA treatment (HeLa cells [2]; 1 μM GA for 30 hours, 5 μM lactacystin): at or above the levels of untreated cells | reversal of loss of XIAP expression caused by GA (HeLa cells [2]): reversed

HKKHSSGAAFLSVKK (Synthetically generated peptide) [SEQ ID NO:23, C84A mutant 77-91 peptide]
on-rates, wild type versus C84A peptide (Hsp90): similar

KHSSGCAFLSVK [SEQ ID NO:3]
inhibition of Hsp90-Survivin binding interactions [3]: especially effective inhibitor

RQIKIWFQNRRMKWKKKHSSG (Synthetically generated peptide) [SEQ ID NO:20]
cell viability (MTT), killing of AML cell lines [4]: efficiently killed all AML cell lines tested | reduction of cell viability (MTT) [5]: considerably more active than the P31 peptide | inhibition of binding of recombinant survivin to Hsp90 (survivin-Hsp90): inhibited the binding of recombinant survivin to Hsp90 in a dose-dependent manner | binding to recombinant Hsp90 in vitro (recombinant Hsp90): comparably bound recombinant Hsp90

RQIKIWFQNRRMKWKKSGKHS (Synthetically generated peptide) [SEQ ID NO:28, scrambled control peptide for K79-G83, reference compound]
cell viability (MTT), killing of AML cell lines [4]: no effect | reduction of cell viability (MTT) [5]: ineffective

RQIKIWFQNRRMKWKKSKLACFSHG (Synthetically generated peptide) [P33, reference compound]
Hsp90 client proteins (survivin, Akt, CDK-4, CDK-6) (PC3 cells): not | cell viability (MTT), killing of AML cell lines [4]: no effect | cell death in normal cell types (MTT) [6]: did not induce cell death in cancer or normal cell types | cell population with hypodiploid DNA content (apoptotic) (HeLa cells [1]; peptides, comparison with chemotherapeutic drugs): not | cell killing (trypan blue exclusion) (HL-60 cells): ineffective | cell death in cancer cell lines (MTT) [7]: did not induce cell death in cancer or normal cell types | levels of Survivin and Akt (HeLa cells [8]): ineffective | induction of apoptosis (Annexin V / propidium iodide) (HeLa cells [9]): ineffective
